Source: US12296053B2, “Nanomaterials comprising triols” (Beam Therapeutics Inc., priority 2022, dated 2025)

Legend:
[1] = Encapsulation efficiency of LNP preparations (Ribogreen assay; Qubit, unlysed and lysed LNPs); assay type: physicochemical; conditions: LNP preparation with the ionizable lipid, ABE mRNA:sgRNA 1:1, except 7-1, 7-2, 7-6, 7-10 (unlysed and lysed LNPs, Qubit)
Experimental: (§1) Lipid nanoparticle components were dissolved in 100% ethanol at specified lipid component molar ratios. mRNA encoding an adenine base editor and a chemically-modified sgRNA was dissolved at a mass ratio of 1:1 in 50 mM citrate, pH 4.0, resulting in a concentration of NA cargo of approximately 0.1 mg/mL.
(§2) LNP preparations were formulated with molar ratios of 47.5% Ionizable Lipid: 40% Cholesterol: 2.5% PEG2000-DMG: 10% DSPC total lipid to NA molar ratio of 6 to 12.
(§3) LNP preparations were formed by microfluidic mixing of the lipid and NA solutions using Precision Nanosystems NanoAssemblr Ignite series Instruments, according to the manufacturer's protocol.
With the exception of LNPs comprising ionizable lipids 7-1, 7-2, 7-6, and 7-10, RNA concentration and encapsulation efficiency were determined by Ribogreen assay (BioTek Synergy LX plate reader). For LNPs comprising ionizable lipids 7-1, 7-2, 7-6, and 7-10, RNA concentration was determined by Qubit microRNA kit (for siRNA) or HS RNA kit (for mRNA) per manufacturer's instructions, and encapsulation efficiency was determined by measuring unlysed and lysed LNPs.

[2] = LNP hydrodynamic diameter and polydispersity index by dynamic light scattering (DLS); assay type: physicochemical; conditions: for Diameter (nm): hydrodynamic diameter of the LNP preparation with the ionizable lipid; for PDI: polydispersity index of the LNP preparation with the ionizable lipid
Experimental: (§4) A 3:1 ratio of aqueous to organic solvent was maintained during mixing using differential flow rates. After mixing, LNP preparations were collected and diluted in TBS (approximately 7:1 v/v), and further buffer exchange was conducted using dialysis in TBS at 4° C. for 8 to 24 hours against a 20 kDa filter. After this initial dialysis, each individual LNP preparation was characterized via dynamic light scattering (DLS) to measure size and polydispersity. pKa of a subpopulation of LNP preparations was measured via TNS assay.
DLS-LNP preparation hydrodynamic diameter and polydispersity index (PDI) was measured using high throughput dynamic light scattering (DLS) (DynaPro plate reader II, Wyatt). LNP preparations were diluted 1×PBS to an appropriate concentration and analyzed.

ALAS1 target site = assay: Base editing in liver by LNP-delivered ABE mRNA and sgRNA, targeted deep sequencing; assay type: in vivo; conditions: LNP with the ionizable lipid, ABE mRNA + sgRNA targeting ALAS1 1:1; tail vein injection, Balb/c mice; 0.05 mg/kg; tissues four to six days post-dose
Experimental: as §1, §2, §3, §4
Male Balb/C mice aged approximately 8-12 weeks were used in the experiments described herein. […]
Age-matched mice were also used to administer vehicle (1×TBS) via tail vein injection as a control. Four to six days post-dose, tissues including liver, spleen, and bone marrow were collected. Base editing was determined by performing targeted deep sequencing analysis at the ALAS1 target site using extracted genomic DNA. Genomic DNA was isolated and fragmented and adapter-ligated using the Nextera DNA Flex Library Prep Kit (Illumina) using the 96-well plate Nextera indexing primers (Illumina), according to the manufacturer's instructions. Library size and concentration was confirmed by Fragment Analyzer (Agilent) and analyzed for whole genome sequencing using an Illumina HiSeq.

CC/C=C\CCCCOC(CCC(=O)OCC(COC(=O)CCCCCC(=O)OCCC(CCCCC)CCCCC)COC(=O)CCC(CCCCC)OC(=O)NCCN1CCCC1)OCCCC/C=C\CC (stereo not drawn) [Compound 7-27, 1-(3-((4,4-bis(((Z)-oct-5-en-1-yl)oxy)butanoyl)oxy)-2-(((4-(((2-(pyrrolidin-1-yl)ethyl)carbamoyl)oxy)nonanoyl)oxy)methyl)propyl) 7-(3-pentyloctyl) heptanedioate]
Encapsulation Efficiency (%) [1]: 96.9%
Diameter (nm) [2]: 61.25 nm
PDI [2]: 0.06
% Editing in Liver (0.05 mpk) (ALAS1 target site): 5.3%

CC/C=C\CCCCOC(CCC(=O)OCC(COC(=O)CCCCCC(=O)OCCC(CCCCC)CCCCC)COC(=O)CCC(C)OC(=O)NCCN1CCCC1)OCCCC/C=C\CC (stereo not drawn) [Compound 7-30, 1-(3-((4,4-bis(((Z)-oct-5-en-1-yl)oxy)butanoyl)oxy)-2-(((4-(((2-(pyrrolidin-1-yl)ethyl)carbamoyl)oxy)pentanoyl)oxy)methyl)propyl) 7-(3-pentyloctyl) heptanedioate]
Encapsulation Efficiency (%) [1]: 98.3%
Diameter (nm) [2]: 71.40 nm
PDI [2]: 0.10
% Editing in Liver (0.05 mpk) (ALAS1 target site): 0.8%

CC/C=C\CCCCOC(CCC(=O)OCC(COC(=O)CCCCCCOC(=O)C(CCCC)CCCCCC)COC(=O)CCC(CCCCCC)OC(=O)OCCCN(CC)CC)OCCCC/C=C\CC (stereo not drawn) [Compound 7-45, 3-((4,4-bis(((Z)-oct-5-en-1-yl)oxy)butanoyl)oxy)-2-(((7-((2-butyloctanoyl)oxy)heptanoyl)oxy)methyl)propyl 4-(((3-(diethylamino)propoxy)carbonyl)oxy)decanoate]
Encapsulation Efficiency (%) [1]: 93.4%
Diameter (nm) [2]: 81.8 nm
PDI [2]: 0.13
% Editing in Liver (0.05 mpk) (ALAS1 target site): 3.4%

CCCCCCCCOC(CCC(=O)OCC(COC(=O)CCCCC(=O)OCCC(CCCCCC)CCCCCC)COC(=O)CCC(CCCCCC)OC(=O)NCCN1CCCC1)OCCCCCCCC (stereo not drawn) [Compound 7-17, 3-((4,4-bis(octyloxy)butanoyl)oxy)-2-(((4-(((2-(pyrrolidin-1-yl)ethyl)carbamoyl)oxy)decanoyl)oxy)methyl)propyl (3-hexylnonyl) adipate]
Encapsulation Efficiency (%) [1]: 98.5%
Diameter (nm) [2]: 57.11 nm
PDI [2]: 0.09
% Editing in Liver (0.05 mpk) (ALAS1 target site): 1.0%

CC/C=C\CCCCOC(CCC(=O)OCC(COC(=O)CCCCCCOC(=O)C(CCCC)CCCCCC)COC(=O)CCC(CCCCCC)OC(=O)NCCN(C)C)OCCCC/C=C\CC (stereo not drawn) [Compound 7-40, 3-((4,4-bis(((Z)-oct-5-en-1-yl)oxy)butanoyl)oxy)-2-(((7-((2-butyloctanoyl)oxy)heptanoyl)oxy)methyl)propyl 4-(((2-(dimethylamino)ethyl)carbamoyl)oxy)decanoate]
Encapsulation Efficiency (%) [1]: 96.8%
Diameter (nm) [2]: 54.1 nm
PDI [2]: 0.09
% Editing in Liver (0.05 mpk) (ALAS1 target site): 1.9%

CC/C=C\CCCCOC(CCC(=O)OCC(COC(=O)CCCCCC(=O)OCC(CCCC)CCCCCC)COC(=O)CCC(CCCCCC)OC(=O)NCCN1CCCC1)OCCCC/C=C\CC (stereo not drawn) [Compound 7-32, 1-(3-((4,4-bis(((Z)-oct-5-en-1-yl)oxy)butanoyl)oxy)-2-(((4-(((2-(pyrrolidin-1-yl)ethyl)carbamoyl)oxy)decanoyl)oxy)methyl)propyl) 7-(2-butyloctyl) heptanedioate]
Encapsulation Efficiency (%) [1]: 96.1%
Diameter (nm) [2]: 53.30 nm
PDI [2]: 0.10
% Editing in Liver (0.05 mpk) (ALAS1 target site): 0.6%
